The results in this text go back to ChEMBL document CHEMBL1133853, “Cyclopenta[g]quinazoline-based antifolates: the effect of the chirality at the 6-position on the inhibition of thymidylate synthase (TS)” (Bioorg Med Chem Lett, 2001).

Structures are written as SMILES.

The target in the experiment is Thymidylate synthase (Mus musculus, UniProt P07607). As to the kind of experiment: Tested for inhibitory activity against thymidylate synthase of L1210 cells. In kind it is cell-based. As to conditions: read-out: Ki app.
Sequence of Thymidylate synthase (P07607 whole entry): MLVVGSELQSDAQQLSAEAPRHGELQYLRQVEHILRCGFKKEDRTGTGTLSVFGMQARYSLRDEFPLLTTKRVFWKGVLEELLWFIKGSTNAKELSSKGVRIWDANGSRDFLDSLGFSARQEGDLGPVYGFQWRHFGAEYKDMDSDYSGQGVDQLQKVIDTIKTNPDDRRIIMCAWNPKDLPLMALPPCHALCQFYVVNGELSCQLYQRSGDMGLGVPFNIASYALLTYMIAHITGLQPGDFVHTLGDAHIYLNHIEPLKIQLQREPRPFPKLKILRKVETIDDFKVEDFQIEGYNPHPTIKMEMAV
Consider `C#CCN(c1ccc(C(=O)N[C@@H](CCC(=O)NC(CCC(=O)O)c2nnn[nH]2)C(=O)O)cc1)C1CCc2cc3nc(C)nc(O)c3cc21` (stereo partly specified), for which the Ki is 0.2 nM. The value for `C#CCN(c1ccc(C(=O)N[C@@H](CCCS(=O)(=O)c2nc[nH]n2)C(=O)O)cc1)[C@@H]1CCc2cc3nc(C)nc(O)c3cc21` was 1200 nM; that for `C#CCN(c1ccc(C(=O)N[C@@H](CCCS(=O)(=O)c2nc[nH]n2)C(=O)O)cc1)[C@H]1CCc2cc3nc(C)nc(O)c3cc21` was 0.71 nM; that for `C#CCN(c1ccc(C(=O)N[C@@H](CCC(=O)N[C@H](CCC(=O)O)C(=O)O)C(=O)O)cc1)[C@@H]1CCc2cc3nc(C)[nH]c(=O)c3cc21` was 3.5 nM.

For the compound `C#CCN(c1ccc(C(=O)N[C@@H](CCC(=O)NC(CCC(=O)O)C(=O)O)C(=O)O)cc1)C1CCc2cc3nc(C)nc(O)c3cc21` (stereo partly specified), the Ki was 0.42 nM. The value for `C#CCN(c1ccc(C(=O)N[C@@H](CCC(=O)N[C@H](CCC(=O)O)c2nnn[nH]2)C(=O)O)cc1)[C@@H]1CCc2cc3nc(C)[nH]c(=O)c3cc21` was 2.1 nM.
